Laboratory results published in BindingDB's records for patent US11691989 (Ascentage Pharma (Suzhou), 2023).

Molecular target: T1, Induced myeloid leukemia cell differentiation protein Mcl-1 [171-323] (Homo sapiens, UniProt Q07820)
T1 construct: 171-323
Assay: Inhibition of Mcl-1 by fluorescence polarization (FP) assay
Experimental: The relative binding potency of representative Compounds of the Disclosure was determined by a fluorescence polarization (FP) assay. The method used a fluorescein labelled peptide (FAM-Bid) which binds to the Mcl-1 protein leading to an increased anisotropy measured in milli-polarization (mP) values using a plate reader. […] A 10-points serial dilution of each compound was prepared in DMSO and 5 μL solution was transferred into flat bottomed, 96-well back plate (final DMSO concentration […]). 120 μL of Buffer (PBS, 0.01% BGG (Sigma Cat. #SRE0011), 0.01% Triton X-100), containing the Fluorescein labelled peptide (Final concentration 2 nM) and Mcl-1 protein (final concentration 20 nM) was then added. […] 10-points dose response curves were plotted with GraphPad software using Sigmoidal Dose-Response Model and the IC50 values were determined by nonlinear regression fitting of the competition curves.

T1 sequence (Q07820 171-323): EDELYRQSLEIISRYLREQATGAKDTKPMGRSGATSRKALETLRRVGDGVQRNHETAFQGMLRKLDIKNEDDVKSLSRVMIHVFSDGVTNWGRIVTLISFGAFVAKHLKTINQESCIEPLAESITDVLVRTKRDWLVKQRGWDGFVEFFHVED

Row | Compound | IC50 [nM]
1 | Cc1c(C(=O)O)n2c3ccc(Cl)c(c13)-c1c(nn(C)c1C)CSCc1cc(n(C(C)C)n1)CSc1cc(c3ccc(F)cc3c1)OCCC2 [US11691989, Compound 17] | 15
2 | Cc1c2c(nn1C)CSCc1cc(n(C)n1)CSc1cc(c3ccc(F)cc3c1)OCCCn1c(C(=O)O)cc3c-2c(Cl)ccc31 [US11691989, Compound 13] | 19
